# Like-named read-outs stand apart in the source and are kept apart here.
# What was measured:
# [1] = assay type: physicochemical
# Method: The glass dishes or glass vials were then placed in different environments of the constant temperature and humidity chamber, with conditions including: illumination: 4500±500 Lux (open); high temperature: 60° C.
# [2] = Solubility test of salts in pH buffers, water and physiological solutions; assay type: physicochemical
# Method: The solubility of dominant salts in different pH buffers, water, and physiological solutions was determined. The specific steps for solubility determination are as follows: […] The vials were sealed, transferred to a magnetic stirrer, and maintained at 25° C. with a stirring rate of 500 rpm for 24 hours. The dissolution status in sample vials was recorded during the test. After 24 hours, approximately 1 mL of the suspension was filtered, and the filtrate was collected for solubility test via HPLC analysis. The pH value of the filtrate sample was measured using a pH meter.
# DVS test of salt forms = assay type: physicochemical
# Description: 1. The instrument sample pan was first tared and balanced.
# 3. The program was run: starting from 0% humidity as the initial point, slowly increasing to 90%, then returning to 0% to complete the cycle 1; rising again to 90% and decreasing back to 0% to conclude, completing the cycle 2 (as shown in FIGS. 35-36).
# [3] = Pharmacokinetic test in rats, oral gavage; assay type: in vivo, Sprague-Dawley rats
# Method: (§1) Subsequently, 976 μL of Tween 80 was added and vortexed for 30 seconds, followed by the addition of 488 μL of Kolliphor HS15 (Kolliphor HS15 was used after heating and melting at 50° C.) and vortexed for 30 seconds. Finally, 7808 L of saline was added and vortexed for 30 seconds, followed by ultrasonication for 10 seconds to remove bubbles. The resulting administration preparation was a suspension.
# as §1, with “1034” for “976”, “517” for “488”, “8270 μL” for “7808 L”
# Species and Strain: Sprague-Dawley rats (SD rats) (Zhejiang Vital River Laboratory Animal Technology Co., Ltd.) • Animal Grade: SPF level
# Planned initial body weight for administration: Male 200-250 g. Actual animal weights will be listed in the raw records. • Number and Gender of Animals: 3 (3 per group), male
# Based on measured body weights, animals with similar weights were divided into groups of 3 animals each. Blank group animals were used for the collection of blank biological matrices.
# • Administration route: Oral gavage • Administration volume: 10 mL/kg • Administration frequency: Single dose • Administration method: The test sample was administered orally via gavage using an appropriate syringe and gavage tube. When using a 2 mL or 5 mL syringe, the administration volume was recorded to one decimal place. When the minimum graduation value of the syringe was 0.2 mL and the administration volume was between two graduation marks, the higher volume was selected for administration.
# Sample collection: Approximately 0.30 mL of whole blood was collected from the orbital vein of Group 1 animals at each time point.
# The experimental animals were fasted for 12 hours before administration, with free access to water. Blood samples were collected from Group 1 animals (oral gavage group) at 5 min, 15 min, 30 min, 1 h, 2 h, 4 h, 6 h, 8 h, and 24 h after administration.
# Sample processing: The collected venous blood was immediately transferred to EDTA-Na2-coated EP tubes (stored in a refrigerator or in an ice box with crushed ice at 2-8° C. prior to use), inverted at least 5 times for thorough mixing, and temporarily stored in an ice box with crushed ice. The collected whole blood was centrifuged at 2000 g for 10 min under 2-8° C. conditions within 2 h to separate plasma, which was then placed in newly labeled centrifuge tubes and stored at −20° C.
# The pharmacokinetics group of the Department of Pharmacology and Toxicology conducted the analysis and measurement of all samples, followed by data summarization. Plasma concentration data were analyzed using the pharmacokinetic data analysis software WinNonlin. Non-compartmental analysis (NCA) was employed to calculate pharmacokinetic parameters such as t1/2, Cmax, Tmax, Vd, CL, AUC0-24, and F. The detailed results are shown in the following table: […]
# [4] = High Relative Humidity (RH = 90 ± 5%, Open, 25° C.), 5 Days
# [5] = High Relative Humidity (RH = 90 ± 5%, Open, 25° C.), 11 Days
# [6] = High Temperature (60° C., Sealed), 5 Days
# [7] = High Temperature (60° C., Sealed), 11 Days
# [8] = Strong Illumination (Open), 5 Days
# [9] = Strong Illumination (Open), 11 Days
# [10] = rats, PO, 40 mpk, single dose, plasma
compound,measurement,setting,value
CC(C)(O)CCn1cc2cc(NC(=O)c3coc(-c4ccnc(C(F)(F)F)c4)n3)c(C(C)(C)O)cc2n1.Cl [crystal form A of hydrochloride salt],Solid-state stability evaluation,[1],good physical and chemical stability
same,Color Change,[1]; [4],No Change
same,Purity,[1]; [4],99.65%
same,Salt Type,[1]; [4],No Change
same,Color Change,[1]; [5],No Change
same,Purity,[1]; [5],99.79%
same,Salt Type,[1]; [5],No Change
same,Color Change,[1]; [6],No Change
same,Purity,[1]; [6],99.64%
same,Salt Type,[1]; [6],No Change
same,Color Change,[1]; [7],No Change
same,Purity,[1]; [7],99.48%
same,Salt Type,[1]; [7],No Change
same,Purity,[1]; Initial State,98.53%
same,Color Change,[1]; Initial State (colour),White
same,Color Change,[1]; [8],No Change
same,Purity,[1]; [8],99.68%
same,Salt Type,[1]; [8],No Change
same,Color Change,[1]; [9],No Change
same,Purity,[1]; [9],99.56%
same,Salt Type,[1]; [9],No Change
same,Solubility at 25° C.,"[2]; Buffer pH = 1.0, 24 hours",172.73 µg/mL
same,Solubility at 25° C.,"[2]; Buffer pH = 6.8, 24 hours",<LOD
same,Solubility at 25° C.,"[2]; FaSSIF (pH = 6.5), 24 hours",2.09 µg/mL
same,Solubility at 25° C.,"[2]; FeSSIF (pH = 5.0), 24 hours",7.86 µg/mL
same,Solubility at 25° C.,"[2]; SGF (pH = 1.2), 24 hours",2.20 µg/mL
same,Solubility at 25° C.,"[2]; Water, 24 hours",<LOD
same,Change of the sample before and after the DVS test,DVS test of salt forms,no changes are observed
same,"Hygroscopicity (DVS), in words","DVS test of salt forms; 0% to 90% humidity, two cycles",low hygroscopicity
same,Water Sorption at 90% Relative Humidity,DVS test of salt forms; 90% Relative Humidity,0.42% Water Sorption at 90% Relative Humidity
same,Desorption,"DVS test of salt forms; cycle 1, 0% humidity",−0.06%
same,Sorption,"DVS test of salt forms; cycle 1, 0% humidity",0.00%
same,Desorption,"DVS test of salt forms; cycle 1, 10% humidity",−0.02%
same,Sorption,"DVS test of salt forms; cycle 1, 10% humidity",−0.02%
same,Desorption,"DVS test of salt forms; cycle 1, 20% humidity",0.01%
same,Sorption,"DVS test of salt forms; cycle 1, 20% humidity",0.00%
same,Desorption,"DVS test of salt forms; cycle 1, 30% humidity",0.04%
same,Sorption,"DVS test of salt forms; cycle 1, 30% humidity",0.03%
same,Desorption,"DVS test of salt forms; cycle 1, 40% humidity",0.07%
same,Sorption,"DVS test of salt forms; cycle 1, 40% humidity",0.06%
same,Desorption,"DVS test of salt forms; cycle 1, 50% humidity",0.11%
same,Sorption,"DVS test of salt forms; cycle 1, 50% humidity",0.09%
same,Desorption,"DVS test of salt forms; cycle 1, 60% humidity",0.16%
same,Sorption,"DVS test of salt forms; cycle 1, 60% humidity",0.13%
same,Desorption,"DVS test of salt forms; cycle 1, 70% humidity",0.21%
same,Sorption,"DVS test of salt forms; cycle 1, 70% humidity",0.17%
same,Desorption,"DVS test of salt forms; cycle 1, 80% humidity",0.30%
same,Sorption,"DVS test of salt forms; cycle 1, 80% humidity",0.28%
same,Desorption,"DVS test of salt forms; cycle 1, 90% humidity",0.42%
same,Sorption,"DVS test of salt forms; cycle 1, 90% humidity",0.42%
same,Desorption,"DVS test of salt forms; cycle 2, 0% humidity",−0.05%
same,Sorption,"DVS test of salt forms; cycle 2, 0% humidity",−0.06%
same,Desorption,"DVS test of salt forms; cycle 2, 10% humidity",−0.02%
same,Sorption,"DVS test of salt forms; cycle 2, 10% humidity",−0.03%
same,Desorption,"DVS test of salt forms; cycle 2, 20% humidity",0.01%
same,Sorption,"DVS test of salt forms; cycle 2, 20% humidity",0.01%
same,Desorption,"DVS test of salt forms; cycle 2, 30% humidity",0.05%
same,Sorption,"DVS test of salt forms; cycle 2, 30% humidity",0.03%
same,Desorption,"DVS test of salt forms; cycle 2, 40% humidity",0.08%
same,Sorption,"DVS test of salt forms; cycle 2, 40% humidity",0.07%
same,Desorption,"DVS test of salt forms; cycle 2, 50% humidity",0.12%
same,Sorption,"DVS test of salt forms; cycle 2, 50% humidity",0.10%
same,Desorption,"DVS test of salt forms; cycle 2, 60% humidity",0.17%
same,Sorption,"DVS test of salt forms; cycle 2, 60% humidity",0.14%
same,Desorption,"DVS test of salt forms; cycle 2, 70% humidity",0.22%
same,Sorption,"DVS test of salt forms; cycle 2, 70% humidity",0.19%
same,Desorption,"DVS test of salt forms; cycle 2, 80% humidity",0.32%
same,Sorption,"DVS test of salt forms; cycle 2, 80% humidity",0.30%
same,Desorption,"DVS test of salt forms; cycle 2, 90% humidity",0.45%
same,Sorption,"DVS test of salt forms; cycle 2, 90% humidity",0.45%
CC(C)(O)CCn1cc2cc(NC(=O)c3coc(-c4ccnc(C(F)(F)F)c4)n3)c(C(C)(C)O)cc2n1.Cl [hydrochloride salt],Plasma concentration and exposure compared with the free base,"[3]; SD rats, single oral gavage, 4 mg/mL suspension, 10 mL/kg",significantly increase
same,AUC0-24,[3]; [10],27508.69 ng·h/mL
same,Cmax,[3]; [10],5117.67 ng/mL

# From patent publication US20260008776A1 (HANGZHOU POLYMED BIOPHARMACEUTICALS, INC., priority 2023, published 2026)
